Assay results taken from US4680310A, “Tetrahydronaphthalene derivatives” (Hoffmann-La Roche Inc., priority 1984, dated 1987).
pIC50: −log10 of the molar value.

Legend:
[1] = test system: ^3 H-nifedipine (or ^3 H-nitrendipine) receptor binding on homogenates or partially-cleaned membranes of rabbit or guinea pig heart; assay: ^3 H-Nifedipine binding determinations (test A); conditions: nifedipine established as 100%
Protocol: A. ^3 H-Nifedipine binding determinations:
The determination is carried out on homogenates or on partially-cleaned membranes of rabbit or guinea pig heart. The reaction mixture (0.3 ml) consists of 0.2-0.8 mg of membrane protein, 1 nM of ^3 H-nifedipine (or 0.25 nM of ^3 H-nitrendipine) and various concentrations of the test substances. The incubation lasts 30 minutes at 25° C. or 37° C. and is stopped by dilution with the incubation buffer; a filtration is subsequently carried out. The filter-bound radioactivity is measured with a scintillation counter. Specific binding (i.e. receptor-bound) is defined as the differences between total and unspecific-bound radioactivity. The unspecific binding is determined in the presence of an excess of non-radioactive nifedipine (1 μM).
The activity (potency) of a compound in this test is defined by the IC50 and % maximum inhibition values (% max. inhibition). The IC50 is the substance concentration (in mol/l) which produces a half-maximum inhibition of the specific ^3 H-nifedipine (or ^3 H-nitrendipine) binding. The maximum inhibition of the specific binding is given by the % maximum inhibition value; this value is established as 100% for the reference compound nifedipine. Both parameters are extrapolated from a concentration-binding curve.

[2] = test system: narcotized dog; assay: Haemodynamic parameters in the narcotized dog (test C); assay type: in vivo; conditions: 0.1 mg/kg i.v.
Text: C. Haemodynamic parameters in the narcotized dog:
The 4 most important measurement parameters (with respective measurement units) of the haemodynamic experiment are: (1) CBF: Coronary Blood Flow (in ml/min)--the velocity of blood flow through the coronary arteries; (2) HR: heart rate (in beats/min)--the heart frequency; (3) BP: blood pressure (in mm Hg)--the blood pressure; and (4) dp/dt: rate of increase in left ventricular pressure (in mm Hg/sec) as a measurement of the contractility force of the heart. The values are given as the % maximum variation from the initial value (Δ%) per dosage administered.
There is thus obtained not only an overall picture of the activity of the substance, but also an estimation as to the potential selectivity for a specific part of the circulatory system in the entire organism. After the administration of an anaesthetic, the dog is intubated and respired artificially. Blood pH, pCO2, pO2 and haemoglobin are measured hourly with a blood-gas analyser. The blood pressure (systolic and diastolic) is measured with a probe in the aorta abdominalis. The heart frequency is recorded by means of a tachometer, which is disengaged from the pressure pulse. For the other measurements the heart must first be opened in order that a probe can be inserted in the left ventricle (heart chamber) for the pressure measurements (dp/dt). The coronary blood flow is measured with a flowing probe in the left coronary artery (descendens).

[3] = test system: Coronary artery strips of dogs (KCl contracture; tension-dependent calcium channel); assay: Relaxation of KCl contracture in coronary artery strips of dogs (test B); assay type: cell-based, dog; conditions: Canis lupus familiaris, KCl 84.7 mM, 37° C., read-out: IC50 (half-maximum relaxation of a KCl contracture)
Protocol: B. Coronary artery strips of dogs:
In this experiment spiral strips (2-2.5 mm wide and 10 mm long) of coronary arteries of dogs are cut and hung up in an organ chamber under an initial tension of 1.5 g. These strips are pre-incubated for a duration of about 1 to 2 hours in Krebs-Henseleit buffer solution which is gassed with Oxycarbon (a mixture of 95% oxygen and 5% carbon dioxide) at 37° C. The relaxing activity of one of these substances is subsequently tested on a KCl (84.7 mM) contracture by the addition of increasing concentrations of the test substance to the organ chamber. The calcium channel-blocking activity of the test substances can therefore be established, as the KCl contracture occurs exclusively by means of calcium flow through the tension-dependent calcium channel.
The activity of a test substance in this test is given by the IC50 value. This value is defined as the substance concentration (in mol/l) which produces a half-maximum relaxation of a KCl contracture. This value is also extrapolated from the resulting concentration-activity curve.

| SMILES | % max inhib. (maximum inhibition of specific binding) [1] [%] | BP (blood pressure), % maximum variation from the initial value [2] | CBF (Coronary Blood Flow), % maximum variation from the initial value [2] | HR (heart rate), % maximum variation from the initial value [2] | dp/dt (rate of increase in left ventricular pressure), % maximum variation from the initial value [2] | pIC50 [3] |
| --- | --- | --- | --- | --- | --- | --- |
| COCC(=O)O[C@]1(CCN(C)CCc2ccc(OC)c(OC)c2)CCc2cc(F)ccc2[C@@H]1C(C)C (relative stereo) [A, 2-[2-[(3,4-Dimethoxyphenethyl)methylamino]ethyl]-6-fluoro-1,2,3,4-tetrahydro-1α-isopropyl-2α-naphthyl methoxyacetate] | 77 | -18 Δ % | +93 Δ % | -3 Δ % | -5 Δ % | 8.55 |
| COc1ccc(CCN(C)CC[C@@]2(OC(C)=O)CCc3cc(OC)c(OC)cc3[C@@H]2C(C)C)cc1OC (relative stereo) [D, 6,7-dimethoxy-2-[2-[(3,4-dimethoxyphenethyl)methylamino]ethyl]-1,2,3,4-tetrahydro-1α-isopropyl-2α-naphthyl acetate] | 82 | -9 Δ % | +58 Δ % | -15 Δ % | +3 Δ % | 7.06 |
| COCC(=O)O[C@]1(CCN(C)CCc2ccc(OC)c(OC)c2)CCc2cc(OC)c(OC)cc2[C@@H]1C(C)C (relative stereo) [E, 6,7-dimethoxy-2-[2-[(3,4-dimethoxyphenethyl)methylamino]ethyl]-1,2,3,4-tetrahydro-1α-isopropyl-2α-naphthyl methoxyacetate] | 88 | -12 Δ % | +65 Δ % | -7 Δ % | +22 Δ % | 7.70 |
| COCC(=O)O[C@]1(CCN(C)CCc2ccc(OC)c(OC)c2)CCc2cc(F)ccc2[C@@H]1C(C)C [B, [1S,2S]-2-[2-[(3,4-dimethoxyphenethyl)methylamino]ethyl]-6-fluoro-1,2,3,4-tetrahydro-1-isopropyl-2-naphthyl methoxyacetate] | 100 | -23 Δ % | +100 Δ % | -20 Δ % | +13 Δ % | 8.21 |
| COCC(=O)O[C@@]1(CCN(C)CCc2ccc(OC)c(OC)c2)CCc2cc(F)ccc2[C@H]1C(C)C [C, [1R,2R2-[2[(3,4Dimethoxyphenethyl)methylamino]ethyl6-fluoro-1,2,3,4-tetraydro-1-isopropyl-2-napthyl methoxyacetate] | 73 | -16 Δ % | +58 Δ % | -5 Δ % | +26 Δ % | 7.11 |
